The values below come from patent US6958351B2, “NMDA NR2B antagonists for treatment” (Pfizer Inc, priority 2000, dated 2005).

As usually defined, the melting point is the temperature of the solid-liquid transition. In the case of `Oc1ccc2c(c1)OCC(N1CCC(O)(c3ccc(F)cc3)CC1)[C@H]2O` (stereo in doubt), the melting point was 159 to 160 °C.
